Our source for the TGI and GI50 values is PubChem BioAssay (NCI).

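Results reflect a 48-hour exposure of cells in 96-well plates to compound at five concentrations. GI50: concentration for 50% inhibition of growth. TGI: total growth inhibition.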

What all share (assay): NCI anticancer screen, dose series, 48 h
Experiment [1] deals with UACC-62 melanoma.
Experiment [2] deals with NCI-H23 lung.
The test system of experiment [3] is ACHN renal.
Experiment [4] relates to HT29 colon.
Experiment [5] has as its system U251 CNS.
Experiment [6] deals with HOP-62 NSCLC.
Experiment [7] relates to OVCAR-8 ovarian.
Experiment [8] relates to SK-MEL-5 melanoma.
Experiment [9] concerns RPMI-8226 leukemia.
Experiment [10] has as its system K-562 leukemia.

Regarding `CC1(C)CC2C(=O)c3ccccc3NC2c2ccccc21` (stereo not given), the TGI in [1] was over 100 µM; in [2] it was over 64.8 µM; in experiment [3], over 100 µM; in [4], over 33.2 µM; in experiment [5], over 100 µM; in experiment [6] it was over 100 µM. Further, the TGI in experiment [7] was over 100 µM; in [8], 26.7 µM; in experiment [9], 14.4 µM; in experiment [10] it was over 90.6 µM.
For the compound `CCOC(=O)c1cc2c3c(c(O)c(OC)c2s1)N(C(=O)c1cc2c4c(c(O)c(OC)c2s1)N(C(C)=O)CC4)CC3`, the TGI in experiment [1], in experiment [2], in [3], in [4], in experiment [5] and in [6] was over 100 µM each time. Also, the TGI in experiment [7], in experiment [8], in experiment [9] and in [10] was over 100 µM throughout.
For `Cn1c2c(c3ccccc31)CCN(CCN1CCN(c3cccc(Cl)c3)CC1)C2=O`, the TGI is over 100 µM in experiment [1]; over 100 µM in experiment [2]; over 100 µM in experiment [3]; 41 µM in [4]; over 100 µM in [5]; over 100 µM in [6]. Further, the TGI in [7] is over 100 µM; in [8] it was 62.6 µM; in experiment [9] it was over 100 µM; in experiment [10], over 100 µM.
Regarding `CSC(=S)N/N=C/c1nccc2ccccc12`, the TGI was 6.08 µM in experiment [1]; 5.03 µM in [2]; 12.2 µM in experiment [3]; over 67.5 µM in experiment [4]; 6.99 µM in experiment [5]; 10.1 µM in [6]. Also, the TGI in [7] came out at 4.96 µM; in [8] it was 2.66 µM; in experiment [9], 11.6 µM; in experiment [10] it was 14.3 µM.
Regarding `Cc1ccc(NC(=O)c2cc(S(=O)(=O)N3C(=O)NC(=O)NS3(=O)=O)c(S)cc2Cl)cc1`, the GI50 in experiment [1] is 15.7 µM; in [2], 32.3 µM; in experiment [3], 26.3 µM; in experiment [4], 42.8 µM; in [5] it was 27.1 µM; in experiment [6], 33.9 µM. Besides, the GI50 in [7] was 30.7 µM; in experiment [8] it was 15.4 µM; in experiment [9], 22 µM; in experiment [10], 22.2 µM. Also, the TGI was 36 µM in experiment [1]; 99.6 µM in [2]; 83.8 µM in [3]; over 100 µM in experiment [4]; over 100 µM in [5]; over 100 µM in experiment [6]. Further, the TGI in experiment [7] is 90.6 µM; in [8], 32 µM; in experiment [9], 73.6 µM; in experiment [10] it was 68.7 µM.
In the case of `CC(C)CCC1(CCN)C(=O)NC(=O)NC1=O`, the TGI in [1], in experiment [2], in experiment [3], in experiment [4], in [5] and in experiment [6] was over 100 µM each time. Further, the TGI in [7], in experiment [8], in [9] and in experiment [10] was over 100 µM each time.
With `CN1/C(=C\C=C\C2=[N+](C)c3ccccc3C2(C)C)C(C)(C)c2ccccc21`, the GI50 in [1] was 0.124 µM; in experiment [2], 0.0189 µM; in [3], 0.268 µM; in experiment [4], 0.0444 µM; in experiment [5] it was 0.0369 µM; in [6] it was 0.258 µM. Further, the GI50 in [7] was 0.101 µM; in [8], 0.0322 µM; in experiment [9], 0.0119 µM; in [10], under 0.0156 µM. For the same compound, the TGI in [1] was 1.45 µM; in experiment [2], 0.529 µM; in experiment [3] it was 3.15 µM; in experiment [4] it was 1.49 µM; in experiment [5] it was 5.21 µM; in [6], 7.37 µM. Moreover, the TGI in experiment [7] is 7.52 µM; in [8], 0.151 µM; in experiment [9] it was 1.33 µM; in experiment [10], 1.39 µM.
`O=[N+]([O-])c1ccc(-c2ccc(-c3csc(Nc4ccccc4)n3)o2)cc1`: the TGI in experiment [1] was 37.2 µM; in experiment [2] it was 36.8 µM; in experiment [3], 31.1 µM; in experiment [4], 49.7 µM; in experiment [5], 41.5 µM; in [6], over 100 µM. For the same compound, the TGI in experiment [7] is 40.7 µM; in experiment [8], 40.1 µM; in [9], over 67.4 µM; in experiment [10] it was 32.1 µM.
As to `Cn1cc(C2=C(c3cn(C4CCN(Cc5ccccn5)CC4)c4ccccc34)C(=O)NC2=O)c2ccccc21`, the GI50 is 5.12 µM in experiment [1]; 6.31 µM in experiment [2]; 9.36 µM in experiment [3]; 2.4 µM in experiment [4]; 3.74 µM in [5]; 12.1 µM in experiment [6]. Moreover, the GI50 in experiment [7] was 6.23 µM; in experiment [8], 2.94 µM; in [9] it was 3.93 µM; in experiment [10], 3.87 µM. The TGI was over 100 µM in experiment [1]; over 100 µM in experiment [2]; over 100 µM in [3]; over 100 µM in experiment [4]; over 100 µM in experiment [5]; 54.9 µM in experiment [6]. For the same compound, the TGI in experiment [7] was over 100 µM; in [8], over 25.9 µM; in [9], over 100 µM; in [10], over 100 µM.
With `N#CNC(N)=Nc1ccc(Cl)cc1`, the TGI in [1], in experiment [2], in experiment [3], in experiment [4], in experiment [5] and in experiment [6] was over 100 µM throughout. The TGI in experiment [7], in experiment [8], in experiment [9] and in experiment [10] was over 100 µM throughout.
`CCOC(=O)/C(C#N)=C\C=C(/Cl)c1ccc(Cl)cc1`: the GI50 in [1] was 18.7 µM; in experiment [2] it was 12.2 µM; in experiment [3], 18.3 µM; in experiment [4], 24 µM; in [5] it was 17.6 µM; in experiment [6] it was 17.5 µM. Moreover, the GI50 in experiment [7] was 19.4 µM; in experiment [8], 18.4 µM; in experiment [9], 3.71 µM; in experiment [10], 12.9 µM. In addition, the TGI in experiment [1] is 38.9 µM; in experiment [2], 26.9 µM; in experiment [3] it was 32.6 µM; in [4] it was over 100 µM; in experiment [5], 32.1 µM; in [6], 35.2 µM. Further, the TGI is 42.1 µM in experiment [7], 39 µM in experiment [8], 29.8 µM in experiment [9] and over 64.3 µM in experiment [10].
`O=C1OCC2=C1C(c1ccccc1)c1cc3c(cc1N2CCO)OCO3` (stereo not given): the GI50 in experiment [1] was 2.53 µM; in experiment [2], 7.88 µM; in [3], 30.5 µM; in experiment [4], 1.72 µM; in experiment [5] it was 3.01 µM; in experiment [6], 4.08 µM. Also, the GI50 in experiment [7] was 12.1 µM; in experiment [8] it was 2.78 µM; in experiment [9] it was 3.09 µM; in experiment [10], 1.91 µM. Besides, the TGI in [1], in experiment [2], in experiment [3], in experiment [4], in experiment [5] and in [6] was over 50 µM throughout. The TGI in experiment [7], in [8], in [9] and in experiment [10] was over 50 µM each time.
For the compound `C=C1C(=O)O[C@H]2[C@H]1CC/C(C=Nc1c(N)cc(C(F)(F)F)cc1Br)=C\CC[C@@]1(C)O[C@@H]21`, the GI50 in [1] is 1.41 µM; in [2], 1.84 µM; in [3], 1.41 µM; in experiment [4], 1.63 µM; in experiment [5], 1.69 µM; in experiment [6], 2.17 µM. Moreover, the GI50 is 2.34 µM in experiment [7], 1.35 µM in [8], 0.399 µM in experiment [9] and 1.99 µM in experiment [10]. Also, the TGI in [1] is 2.96 µM; in experiment [2], 4.41 µM; in experiment [3], 2.71 µM; in [4], 3.13 µM; in experiment [5], 3.17 µM; in experiment [6] it was 4.82 µM. In addition, the TGI came out at 9.03 µM in experiment [7], 2.64 µM in [8], 2.37 µM in [9] and 6.87 µM in [10].
`CCN(C(=O)/C=C/c1ccco1)c1ccccc1`: the TGI in [1], in [2], in experiment [3], in experiment [4], in experiment [5] and in experiment [6] was over 100 µM throughout. The TGI in experiment [7], in experiment [8], in [9] and in experiment [10] was over 100 µM in each case.
Take `CN(C)CCNC(=O)Cn1ccc(=O)c2c([N+](=O)[O-])cccc21`: the TGI in [1], in experiment [2], in experiment [3], in experiment [4], in experiment [5] and in [6] was over 100 µM in each case. Also, the TGI in [7], in experiment [8], in [9] and in [10] was over 100 µM throughout.
